In publication PMC8389614, “A Comparison of Acute Pharmacological Effects of Methylone and MDMA Administration in Humans and Oral Fluid Concentrations as Biomarkers of Exposure” (Biology, 2021):

Experiments:
healthy poly-drug users [1] = test: Subjective effects, ARCI 49-item short form; format: in vivo, humans; design: key to ARCI PCAG Dunnet’s Test: “a” (times 0–1 h); “b” (times 0–2 h); “c” (times 0–4 h); not significant (NS)
Description: (§1) The study was designed as a non-controlled prospective observational study in a naturalistic setting with methylone and MDMA self-administration. The methodology, including procedures and evaluations, coincides with previous observational–naturalistic studies aimed at evaluating the acute effects of other NPS [38, 39, 40]. Six subjects (5 M, 1 F) self-administered MDMA and 8 subjects (5 M, 3 F) self-administered methylone. Each subject participated only in one session. Participants brought their own substance obtained from an unknown source, which was tested by Energy Control, a harm reduction organization that provides a drug checking service to drug users. Pills containing methylone and MDMA were analyzed by gas chromatography associated with mass spectrometry (GC/MS), a technique that traces the presence of the most frequent drugs of abuse, such as MDMA, cocaine, heroin, amphetamine and methamphetamine, LSD, and multiple NPS (methylone, mephedrone, and other synthetic cathinones, synthetic cannabinoids, tryptamines, among others).
(§2) In both sessions, participants selected the dose of methylone or MDMA according to their previous drug use experience. Doses of methylone could be selected from a range (75–300 mg) that was previously defined according to the consulted literature. The WHO Expert Committee on Drug Dependence (Thirty-Sixth Meeting, Geneva, Switzerland, 16–20 June 2014) established that 60 mg of methylone was the threshold dose and doses over 250 mg were often related to very strong activity. Some users have reported uses of 300 mg of methylone as a common dose [www.erowid.org] (accessed on 15 June 2021). The mean of the selected doses of MDMA was 87.50 mg (3 subjects ingested 75 mg (2 males and 1 female), 3 males 100 mg). In the other study session, methylone doses ranged from 100 to 300 mg, with a mean of 187.50 mg. Based on their dose selection, 1 male ingested 100 mg, 2 subjects 150 mg (1 male and 1 female), 4 subjects 200 mg (2 males and 2 females), and 1 male 300 mg.
(§3) The sessions were conducted in a naturalistic setting. Participants were allowed to talk, read, listen to music, or play games, except during the evaluation times. However, they were asked to refrain from talking about the effects of the substance. All the subjects were evaluated simultaneously at baseline, 1, 2, and 4 h after administration of methylone or MDMA, which occurred approximately at 16:00 h. At each time point, evaluations were followed in a specific order: physiological effects, oral fluid collection, and subjective effects scales and questionnaires.
(§4) Subjective effects were evaluated at baseline, 1, 2, and 4 h after self-administration using visual analogue scales (VAS), the Addiction Research Center Inventory (ARCI), and the Evaluation of Subjective Effects of Substances with Abuse Potential questionnaire (VESSPA-SSE).
The standardized ARCI 49-item short form is a true/false questionnaire used to evaluate the subjective effects of drugs of abuse. This inventory includes five subscales that assess pentobarbital–chlorpromazine–alcohol-like effects (PCAG, sedation), morphine–benzedrine-like effects (MBG, euphoria), lysergic acid diethylamide-like effects (LSD, dysphoria), benzedrine-like effects (BG, intellectual efficiency), and amphetamine-like effects (A, increased energy).
Vital signs (SBP, DBP, and HR) and subjective effects (VAS, ARCI, and VESSPA-SSE) were baseline-adjusted. Maximum effects and the time in which maximum effects appeared were determined, and the area under the curve (AUC0–4h) was calculated with the trapezoidal rule.
Thirdly, to find possible significant changes from baseline, a Dunnett multiple comparison test was conducted to compare each time point with baseline in both drug conditions (0–1 h, 0–2 h, 0–4 h).

5-HT1A receptor = tested on: 5-HT1A receptor; design: method as in PMID 25237120, PMID 23583454; details: cited from earlier work
healthy poly-drug users [2] = test: Subjective effects, visual analogue scales (VAS); format: in vivo, humans; design: key to VAS stimulated Dunnet’s Test / VAS change in lights Dunnet’s Test / VAS different body feeling Dunnet’s Test / VAS different surrounding Dunnet’s Test / VAS dizziness Dunnet’s Test / VAS headache Dunnet’s Test / VAS face flushing Dunnet’s Test: “a” (times 0–1 h); “b” (times 0–2 h); “c” (times 0–4 h); not significant (NS)
Description: as §1, §2, §3, §4
Visual analogue scales (100 mm, from “not at all” to “extremely”) contained 30 items that subjects were asked to rate, such as: intensity, stimulated, high, good effects, liking, happiness, drunkenness, changes in colors, changes in shapes, changes in lights, hallucinations (seeing lights or spots), hallucinations (seeing of animals), changes in hearing, hallucinations (hearing sounds or voices), different or changed body feeling, unreal body feeling, changes in distances, different surroundings, unreal surroundings, confusion, fear, depression or sadness, drowsiness, dizziness, bad effects, headache, sickness, vertigo, shortness of breath, and face flushing.
Vital signs (SBP, DBP, and HR) and subjective effects (VAS, ARCI, and VESSPA-SSE) were baseline-adjusted. Maximum effects and the time in which maximum effects appeared were determined, and the area under the curve (AUC0–4h) was calculated with the trapezoidal rule. […]

[3] = oral, methylone 100–300 mg n=8, MDMA 75–100 mg n=6, baseline-adjusted, mean ± SD
[4] = oral, methylone 100–300 mg n=8, MDMA 75–100 mg n=6, median (min–max)
[5] = time points significantly different from baseline

With `CNC(C)C(=O)c1ccc2c(c1)OCO2` (stereo not shown) [Methylone, 3,4-methylenedioxymethcathinone] the “ARCI A (increased energy) AUC0–4h” value (healthy poly-drug users [1]; [3]) was 12.56 ± 7.77, the “ARCI A (increased energy) Emax” value (healthy poly-drug users [1]; [3]) was 5.38 ± 3.29 score and the “ARCI BG (intellectual efficiency) AUC0–4h” value (healthy poly-drug users [1]; [3]) was 10.06 ± 7.83. For the same compound, the “ARCI BG (intellectual efficiency) Emax” value (healthy poly-drug users [1]; [3]) was 4.63 ± 3.34 score, the “ARCI MBG (euphoria) AUC0–4h” value (healthy poly-drug users [1]; [3]) was 16.63 ± 13.21 and the “ARCI MBG (euphoria) Emax” value (healthy poly-drug users [1]; [3]) was 7.5 ± 5.13 score. The “ARCI PCAG (sedation) AUC0–4h” value (healthy poly-drug users [1]; [3]) was −2.75 ± 3.73, the “ARCI PCAG (sedation) Emax” value (healthy poly-drug users [1]; [3]) was −1.25 ± 1.58 score and the “ARCI A (increased energy) Tmax” value (healthy poly-drug users [1]; [4]) was 1.5 (1.0–4.0) h. The “ARCI A Dunnet’s Test” value (healthy poly-drug users [1]; [5]) was “a, b”, the “ARCI BG Dunnet’s Test” value (healthy poly-drug users [1]; [5]) was “a, b” and the “ARCI MBG Dunnet’s Test” value (healthy poly-drug users [1]; [5]) was “a, b”. The “ARCI PCAG Dunnet’s Test” value (healthy poly-drug users [1]; [5]) was “a”, the “Activity at the 5-HT1A receptor” value (5-HT1A receptor) was “partial agonist” and the “Time at which subjective effects in general reached maximum values” (healthy poly-drug users [2]; oral, VAS, ARCI, VESSPA-SSE overall) was 2 h. For the same compound, the “VAS change in lights AUC0–4h” value (healthy poly-drug users [2]; [3]) was 10.88 ± 11.85, the “VAS change in lights Emax” value (healthy poly-drug users [2]; [3]) was 4.88 ± 4.82 mm and the “VAS content AUC0–4h” value (healthy poly-drug users [2]; [3]) was 80.06 ± 82.59. For the same compound, the “VAS content Emax” value (healthy poly-drug users [2]; [3]) was 35.25 ± 30.38 mm, the “VAS different body feeling AUC0–4h” value (healthy poly-drug users [2]; [3]) was 44.13 ± 43.86 and the “VAS different body feeling Emax” value (healthy poly-drug users [2]; [3]) was 22.25 ± 20.60 mm. The “VAS different surrounding AUC0–4h” value (healthy poly-drug users [2]; [3]) was 5.69 ± 10.39, the “VAS different surrounding Emax” value (healthy poly-drug users [2]; [3]) was 4.38 ± 7.50 mm and the “VAS dizziness AUC0–4h” value (healthy poly-drug users [2]; [3]) was 2.63 ± 3.02. The “VAS dizziness Emax” value (healthy poly-drug users [2]; [3]) was 2.13 ± 2.53 mm, the “VAS face flushing AUC0–4h” value (healthy poly-drug users [2]; [3]) was 64.50 ± 56.75 and the “VAS face flushing Emax” value (healthy poly-drug users [2]; [3]) was 31.25 ± 21.91 mm. The “VAS good effects AUC0–4h” value (healthy poly-drug users [2]; [3]) was 74.06 ± 67.08, the “VAS good effects Emax” value (healthy poly-drug users [2]; [3]) was 35.63 ± 30.63 mm and the “VAS headache AUC0–4h” value (healthy poly-drug users [2]; [3]) was 23.63 ± 28.94. The “VAS headache Emax” value (healthy poly-drug users [2]; [3]) was 20.25 ± 28.93 mm, the “VAS high AUC0–4h” value (healthy poly-drug users [2]; [3]) was 55.06 ± 53.54 and the “VAS high Emax” value (healthy poly-drug users [2]; [3]) was 24.0 ± 21.28 mm. For the same compound, the “VAS intensity AUC0–4h” value (healthy poly-drug users [2]; [3]) was 45.88 ± 43.66, the “VAS intensity Emax” value (healthy poly-drug users [2]; [3]) was 20.0 ± 16.48 mm and the “VAS stimulated AUC0–4h” value (healthy poly-drug users [2]; [3]) was 50.56 ± 47.38. For the same compound, the “VAS stimulated Emax” value (healthy poly-drug users [2]; [3]) was 22.50 ± 18.81 mm, the “VAS change in lights Tmax” value (healthy poly-drug users [2]; [4]) was 1.0 (0.0–2.0) h and the “VAS change in lights Dunnet’s Test” value (healthy poly-drug users [2]; [5]) was “a, b”. The “VAS content Dunnet’s Test” value (healthy poly-drug users [2]; [5]) was “a, b”, the “VAS different body feeling Dunnet’s Test” value (healthy poly-drug users [2]; [5]) was “NS” and the “VAS different surrounding Dunnet’s Test” value (healthy poly-drug users [2]; [5]) was “NS”. For the same compound, the “VAS dizziness Dunnet’s Test” value (healthy poly-drug users [2]; [5]) was “a”, the “VAS face flushing Dunnet’s Test” value (healthy poly-drug users [2]; [5]) was “b” and the “VAS good effects Dunnet’s Test” value (healthy poly-drug users [2]; [5]) was “a, b”. The “VAS headache Dunnet’s Test” value (healthy poly-drug users [2]; [5]) was “c”, the “VAS high Dunnet’s Test” value (healthy poly-drug users [2]; [5]) was “a, b” and the “VAS intensity Dunnet’s Test” value (healthy poly-drug users [2]; [5]) was “a, b”. The “VAS stimulated Dunnet’s Test” value (healthy poly-drug users [2]; [5]) was “b”.
